Results as given in patent US20080280862A1, “Methods, compositions, and kits for the treatment of pain” (priority 2007, published 2008).

These molecules were tested on TNFα (assay: TNFα secretion by human white blood cells stimulated with PMA/ionomycin, synergy score). Details: combination with Betamethasone; PBMC stimulated with PMA/Ionomycin.
Assay type: cell-based
Design: key: S = Σ Idata(Idata−ILoewe) × ln dilution factors; volume over Loewe additivity
Description: A 100 μl suspension of diluted human white blood cells contained within each well of a polystyrene 384-well plate (NalgeNunc) was stimulated to secrete TNFα by treatment with a final concentration of 10 ng/mL phorbol 12-myristate 13-acetate (Sigma, P-1585) and 750 ng/mL ionomycin (Sigma, I-0634). Various concentrations of each test compound were added at the time of stimulation. After 16-18 hours of incubation at 37° C. in a humidified incubator, the plate was centrifuged and the supernatant transferred to a white opaque polystyrene 384-well plate (NalgeNunc, Maxisorb) coated with an anti-TNFα antibody (PharMingen, #551220). After a two-hour incubation, the plate was washed (Tecan PowerWasher 384) with PBS containing 0.1% Tween 20 and incubated for an additional one hour with another anti-TNFα antibody that was biotin labeled (PharMingen, #554511) and HRP coupled to strepavidin (PharMingen, #13047E). After the plate was washed with 0.1% Tween 20/PBS, an HRP-luminescent substrate was added to each well and light intensity measured using a LJL Analyst plate luminometer.
The synergy scores calculated for the various combinations of compounds set forth in Table 3 was calculated by the formula S=log fX log fYΣIdata(Idata−ILoewe), summed over all non-single-agent concentration pairs, and where log fX,Y are the natural logarithm of the dilution factors used for each single agent. This effectively calculates a volume between the measured and Loewe additive response surfaces, weighted towards high inhibition and corrected for varying dilution factors.
With `CN1CCC(=C2c3ccccc3C=Cc3ccccc32)CC1` [Cyproheptadine] the “Synergy Score based on TNF-α inhibition” value was 0.8. `CN(C)CCCN1c2ccccc2CCc2ccccc21` [Imipramine] was tested, and the “Synergy Score based on TNF-α inhibition” value was 0.34. With `CNCCCN1c2ccccc2CCc2ccccc21` [Desipramine] the “Synergy Score based on TNF-α inhibition” value was 0.69. `CN(C)CCCN1c2ccccc2CCc2ccc(Cl)cc21` [Clomipramine] was tested, and the “Synergy Score based on TNF-α inhibition” value was 0.78. For `CN1CCC(=C2c3ccccc3CC(=O)c3sccc32)CC1` [Ketotifen], the “Synergy Score based on TNF-α inhibition” value was 0.37.

Same assay, conditions: combination with Budesonide; PBMC stimulated with PMA/Ionomycin
For `CN1CCC(=C2c3ccccc3C=Cc3ccccc32)CC1` [Cyproheptadine], the “Synergy Score based on TNF-α inhibition” value was 0.56. In the case of `CN(C)CCCN1c2ccccc2CCc2ccccc21` [Imipramine], the “Synergy Score based on TNF-α inhibition” value is reported as 0.88. In the case of `CNCCCN1c2ccccc2CCc2ccccc21` [Desipramine], the “Synergy Score based on TNF-α inhibition” value is reported as 1. In the case of `CN(C)CCCN1c2ccccc2CCc2ccc(Cl)cc21` [Clomipramine], the “Synergy Score based on TNF-α inhibition” value is reported as 0.61. With `CN1CCC(=C2c3ccccc3CC(=O)c3sccc32)CC1` [Ketotifen] the “Synergy Score based on TNF-α inhibition” value was 0.15.

Same assay, conditions: combination with Clobetasol; PBMC stimulated with PMA/Ionomycin
For `CNCCCN1c2ccccc2CCc2ccccc21` [Desipramine], the “Synergy Score based on TNF-α inhibition” value was 0.52. With `CN(C)CCCN1c2ccccc2CCc2ccc(Cl)cc21` [Clomipramine] the “Synergy Score based on TNF-α inhibition” value was 0.65.

Same assay, conditions: combination with Dexamethasone; PBMC stimulated with PMA/Ionomycin
In the case of `CN1CCC(=C2c3ccccc3C=Cc3ccccc32)CC1` [Cyproheptadine], the “Synergy Score based on TNF-α inhibition” value is reported as 1.3. With `CNCCCN1c2ccccc2CCc2ccccc21` [Desipramine] the “Synergy Score based on TNF-α inhibition” value was 1.6. For `CN(C)CCCN1c2ccccc2CCc2ccc(Cl)cc21` [Clomipramine], the “Synergy Score based on TNF-α inhibition” value was 1.2. `CN1CCC(=C2c3ccccc3CC(=O)c3sccc32)CC1` [Ketotifen] was tested, and the “Synergy Score based on TNF-α inhibition” value was 1.6.

Same assay, conditions: combination with Diflorasone; PBMC stimulated with PMA/Ionomycin
With `CN(C)CCCN1c2ccccc2CCc2ccccc21` [Imipramine] the “Synergy Score based on TNF-α inhibition” value was 0.43. With `CNCCCN1c2ccccc2CCc2ccccc21` [Desipramine] the “Synergy Score based on TNF-α inhibition” value was 0.5. With `CN(C)CCCN1c2ccccc2CCc2ccc(Cl)cc21` [Clomipramine] the “Synergy Score based on TNF-α inhibition” value was 0.55.

Same assay, conditions: combination with Hydrocortisone; PBMC stimulated with PMA/Ionomycin
In the case of `CN1CCC(=C2c3ccccc3C=Cc3ccccc32)CC1` [Cyproheptadine], the “Synergy Score based on TNF-α inhibition” value is reported as 0.75. For `CN(C)CCCN1c2ccccc2CCc2ccccc21` [Imipramine], the “Synergy Score based on TNF-α inhibition” value was 0.82. In the case of `CNCCCN1c2ccccc2CCc2ccccc21` [Desipramine], the “Synergy Score based on TNF-α inhibition” value is reported as 0.74. In the case of `CN(C)CCCN1c2ccccc2CCc2ccc(Cl)cc21` [Clomipramine], the “Synergy Score based on TNF-α inhibition” value is reported as 0.6. `CN1CCC(=C2c3ccccc3CC(=O)c3sccc32)CC1` [Ketotifen] was tested, and the “Synergy Score based on TNF-α inhibition” value was 0.31.

Same assay, conditions: combination with Prednisolone; PBMC stimulated with PMA/Ionomycin
`CN1CCC(=C2c3ccccc3C=Cc3ccccc32)CC1` [Cyproheptadine] was tested, and the “Synergy Score based on TNF-α inhibition” value was 1.3. With `CN(C)CCCN1c2ccccc2CCc2ccccc21` [Imipramine] the “Synergy Score based on TNF-α inhibition” value was 0.61. For `CNCCCN1c2ccccc2CCc2ccccc21` [Desipramine], the “Synergy Score based on TNF-α inhibition” value was 1.3. `CN(C)CCCN1c2ccccc2CCc2ccc(Cl)cc21` [Clomipramine] was tested, and the “Synergy Score based on TNF-α inhibition” value was 0.82. In the case of `CN1CCC(=C2c3ccccc3CC(=O)c3sccc32)CC1` [Ketotifen], the “Synergy Score based on TNF-α inhibition” value is reported as 0.78.

Same assay, conditions: combination with Triamcinolone; PBMC stimulated with PMA/Ionomycin
In the case of `CN1CCC(=C2c3ccccc3C=Cc3ccccc32)CC1` [Cyproheptadine], the “Synergy Score based on TNF-α inhibition” value is reported as 0.57. With `CN(C)CCCN1c2ccccc2CCc2ccccc21` [Imipramine] the “Synergy Score based on TNF-α inhibition” value was 0.34. With `CNCCCN1c2ccccc2CCc2ccccc21` [Desipramine] the “Synergy Score based on TNF-α inhibition” value was 0.44. In the case of `CN(C)CCCN1c2ccccc2CCc2ccc(Cl)cc21` [Clomipramine], the “Synergy Score based on TNF-α inhibition” value is reported as 0.5. In the case of `CN1CCC(=C2c3ccccc3CC(=O)c3sccc32)CC1` [Ketotifen], the “Synergy Score based on TNF-α inhibition” value is reported as 0.15.
